These compounds were tested against T1, c-kit autophosphorylation (Phospho c-Kit Tyr721) in HMC 1.1 (exon 11/13) cells, V654A (Homo sapiens, UniProt P10721, V560G/V654A) (assay: pKIT Meso Scale Discovery (MSD) assay, inhibition of autophosphorylation of KIT, HMC1.1_V654A). Details: Table 1, cell line not named for Table 1, b1056 names pKIT HMC1.1_V654A, read-out: Code (IC50 for inhibition of autophosphorylation of KIT, pKIT MSD assay).
T1 construct: endogenous in cells; host or cells: HMC 1.1 (exon 11/13) cells
Format: cell-based
Description: In this MSD assay, specific capture antibodies for the analytes were coated in arrays in each well of a 96-well carbon electrode plate surface. The detection system used SULFO-TAG™ labels that emit light upon electrochemical stimulation initiated at the electrode surfaces of the […] and MULTI-SPOT® plates. The electrical stimulation was decoupled from the output signal, which was light and generated assays with minimal background. The goal of this assay was to assess the percent inhibition of autophosphorylation of c-kit in cells when treated with compounds of the disclosure in a dose-dependent manner.
HMC1.1 cells were maintained in IMDM media supplemented with 20% Calf Serum with Iron and 100 units/mL Penicillin-Streptomycin and grown in a 37° C. humidified tissue culture incubator. HMC1.1 cells were passaged by 1:5 dilution into fresh IMDM media supplemented with 20% Calf Serum with Iron and 100 units/mL Penicillin-Streptomycin every 5-7 days and were discarded after 20 passages.
Seeding was performed as follows: HMC cells were brought to 1×10^6 cells/mL in fresh phenol red free, serum-free, iron-free IDM media with Pen/Strep; cells were seeded/plated into respective U-bottom plate by dispensing 50 μL/well (50,000 cells) using the Multidrop, and covered and incubated cells at 37° C. in a humidified tissue culture incubator for 4 hours (starvation).
Dosing was performed as follows: The compound mother plate was prepared by adding 16 μL of compound to 24 μL of DMSO to row A, odd-numbered columns of screen matrix plate. […] Intermediate plates were prepared in V-bottom plates by dispensing 98 μL of phenol red free, serum free IMDM media with Pen/Strep into all wells. 2 μL DMSO or 2 μL 10 mM staurosporine was added to appropriate control wells. At the end of four hours, the Bravo protocol 10 cpds vertical dose MSD 2 U-plates 96-well was used to: add 2 μL from the compound plate to the intermediate plate and dose cells with 7 μL from the intermediate plate. The cells were covered and incubated at 37° C. in a humidified tissue culture incubator for 90 min. The complete lysis buffer was prepared with AlphaLISA 5× Lysis Buffer supplemented with 1× protease inhibitor cocktail and kept on ice. The cells were pelleted by centrifuging plate at 2500×g for 5 min, 4° C. and media removed. Complete lysis buffer was added (14 μL/well). The cells were covered and shaken at 4° C. on a plate shaker at 600 rpm for 30 min and kept cold
The MSD protocol was preformed as follows: Tris Wash Buffer (2L) was prepared by diluting 10× stock of Tris Wash Buffer to 1× in water. Blocking Solution was prepared by dissolving 600 mg Blocker A in 20 mL 1× Trish Wash Buffer (per plate). The Antibody Dilution Buffer was prepared by mixing 1 mL Blocking solution and 2 mL 1× Trish Wash Buffer (per plate) and kept on ice. Blocking Solution was added (150 μL/well) to each MSD plate using a multichannel repeater pipette. The plate was covered and incubated at room temperature on a plate shaker at 700 rpm for hr. The Bio Tek protocol RL-96w-wash-MSD_stacker_fromC was used to wash plates 3× with 150 μL/well. Cells were pelleted by centrifuging lysate plates at 2500×g for 5 mins. The Bravo protocol was used (transfer 25 ul supernatants from V-96 to assay plate) to transfer 25 μL sample lysate per well to each MSD plate. The plates were covered and incubated at room temperature on a plate shaker at 700 rpm for hr. The Bio Tek protocol RL-96w-wash-MSD_stacker_fromC was used to wash plates 3× with 150 μL/well. The Detection Antibody Solution was prepared by diluting the 60 μL of the 50× antibody stock in 2.94 mL of the Antibody Dilution Buffer (per plate) and kept on ice. 25 μL/well of detection antibody solution was added to each MSD plate. The plates were covered and incubated at room temperature on a plate shaker at 700 rpm for 1 hr. The Read Buffer was prepared by diluting 5 mL of 4× stock of Read Buffer to 1× in 15 mL water (per plate).

T1 sequence (P10721 26-976 V560G/V654A): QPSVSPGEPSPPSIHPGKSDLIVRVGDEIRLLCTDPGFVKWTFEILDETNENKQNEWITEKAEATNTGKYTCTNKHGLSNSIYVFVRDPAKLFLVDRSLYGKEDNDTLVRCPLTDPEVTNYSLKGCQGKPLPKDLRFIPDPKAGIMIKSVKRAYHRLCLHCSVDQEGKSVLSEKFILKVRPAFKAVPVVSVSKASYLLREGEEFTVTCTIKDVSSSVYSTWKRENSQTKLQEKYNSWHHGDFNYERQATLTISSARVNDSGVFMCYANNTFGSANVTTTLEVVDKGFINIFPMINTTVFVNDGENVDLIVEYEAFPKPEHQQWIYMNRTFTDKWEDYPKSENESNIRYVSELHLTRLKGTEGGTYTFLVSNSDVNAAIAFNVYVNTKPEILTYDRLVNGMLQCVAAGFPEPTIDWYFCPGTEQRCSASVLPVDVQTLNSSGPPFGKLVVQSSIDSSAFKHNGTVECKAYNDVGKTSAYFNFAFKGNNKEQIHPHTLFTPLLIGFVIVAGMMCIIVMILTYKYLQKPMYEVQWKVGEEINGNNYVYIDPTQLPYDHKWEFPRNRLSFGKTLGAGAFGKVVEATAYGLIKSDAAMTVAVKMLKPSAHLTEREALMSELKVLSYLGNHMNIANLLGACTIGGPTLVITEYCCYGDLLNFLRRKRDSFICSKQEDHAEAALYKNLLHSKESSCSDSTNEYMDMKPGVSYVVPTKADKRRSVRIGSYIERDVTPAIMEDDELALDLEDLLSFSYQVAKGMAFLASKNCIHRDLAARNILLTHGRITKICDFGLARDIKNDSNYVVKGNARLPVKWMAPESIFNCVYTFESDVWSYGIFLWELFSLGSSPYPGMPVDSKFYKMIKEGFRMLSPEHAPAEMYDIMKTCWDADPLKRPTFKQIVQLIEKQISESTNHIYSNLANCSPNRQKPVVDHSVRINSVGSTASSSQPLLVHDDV

Q: Which IC50 does the source give for `Cn1cc(-c2cnc(Nc3cc(N)nc(C(F)F)n3)cc2OC2CCOC2)cn1` (centres unmarked) [Compound 106, 2-(difluoromethyl)-N4-(5-(1-methyl-1H-pyrazol-4-yl)-4-((tetrahydrofuran-3-yl)oxy)pyridin-2-yl)pyrimidine-4,6-diamine] here?
A: < 10 nM

Q: Which IC50 does the source give for `CC(C)(N)Cn1cc(-c2cnc(Nc3cc(N)nc(C(F)F)n3)cc2OC2CC2)cn1` [Compound 169, N4-(5-(1-(2-amino-2-methylpropyl)-1H-pyrazol-4-yl)-4-cyclopropoxypyridin-2-yl)-2-(difluoromethyl)pyrimidine-4,6-diamine] here?
A: < 10 nM

Q: Which IC50 does the source give for `CNC(=O)c1cnc(Nc2cc(N)nc(C(F)F)n2)cc1NC1CCOC1` (centres unmarked) [Compound 64, 6-((6-amino-2-(difluoromethyl)pyrimidin-4-yl)amino)-N-methyl-4-((tetrahydrofuran-3-yl)amino)nicotinamide] here?
A: 10 to 40 nM

Q: `C[C@H](CF)Oc1cc(Nc2cc(N)nc(C(F)F)n2)ncc1-c1cnn(C)c1` (single isomer, unassigned) [Compound 88, (R)-2-(difluoromethyl)-N4-(4-((1-fluoropropan-2-yl)oxy)-5-(1-methyl-1H-pyrazol-4-yl)pyridin-2-yl)pyrimidine-4,6-diamine or (S)-2-(difluoromethyl)-N4-(4-((1-fluoropropan-2-yl)oxy)-5-(1-methyl-1H-pyrazol-4-yl)pyridin-2-yl)pyrimidine-4,6-diamine] was tested. Which IC50 did it give?
A: < 10 nM

Q: `CNC(=O)c1cnc(Nc2cc(N)nc(CF)n2)cc1NC(C)CF` (single isomer, unassigned) [Compound 28, (R)-6-((6-amino-2-(fluoromethyl)pyrimidin-4-yl)amino)-4-((1-fluoropropan-2-yl)amino)-N-methylnicotinamide or (S)-6-((6-amino-2-(fluoromethyl)pyrimidin-4-yl)amino)-4-((1-fluoropropan-2-yl)amino)-N-methylnicotinamide] was tested. Which IC50 did it give?
A: > 40 nM

Q: `COc1cc(Nc2cc(N)nc(C(F)F)n2)ncc1-c1cnn(C(C)(C)CO)c1` [Compound 122, 2-(4-(6-((6-amino-2-(difluoromethyl)pyrimidin-4-yl)amino)-4-methoxypyridin-3-yl)-1H-pyrazol-1-yl)-2-methylpropan-1-ol] was tested. Which IC50 did it give?
A: < 10 nM

Q: For `CCOc1cc(Nc2cc(N)nc(C(F)F)n2)ncc1-c1cnn(CCNC)c1` [Compound 119, 2-(difluoromethyl)-N4-(4-ethoxy-5-(1-(2-(methylamino)ethyl)-1H-pyrazol-4-yl)pyridin-2-yl)pyrimidine-4,6-diamine], which IC50 is on record?
A: < 10 nM

Q: For `CCOc1cc(Nc2cc(N)nc(C(F)F)n2)ncc1-c1cnn(CC(C)(C)O)c1` [Compound 152, 1-(4-(6-((6-amino-2-(difluoromethyl)pyrimidin-4-yl)amino)-4-ethoxypyridin-3-yl)-1H-pyrazol-1-yl)-2-methylpropan-2-ol], which IC50 is on record?
A: < 10 nM

Q: For `COc1cc(Nc2cc(N)nc(C(F)F)n2)ncc1-c1cnn(CC2CCO2)c1` (centres unmarked) [Compound 111, 2-(difluoromethyl)-N4-(4-methoxy-5-(1-(oxetan-2-ylmethyl)-1H-pyrazol-4-yl)pyridin-2-yl)pyrimidine-4,6-diamine], which IC50 is on record?
A: < 10 nM

Q: For `Nc1cc(Nc2cc(NC3CC3)c(C(=O)NCc3cocn3)cn2)nc(C(F)F)n1` [Compound 134, 6-((6-amino-2-(difluoromethyl)pyrimidin-4-yl)amino)-4-(cyclopropylamino)-N-(oxazol-4-ylmethyl)nicotinamide], which IC50 is on record?
A: < 10 nM

Q: How did the IC50 turn out when `CCOc1cc(Nc2cc(N)nc(C(F)F)n2)ncc1-c1cnn(C2CNC2)c1` [Compound 98, N4-(5-(1-(azetidin-3-yl)-1H-pyrazol-4-yl)-4-ethoxypyridin-2-yl)-2-(difluoromethyl)pyrimidine-4,6-diamine] was run?
A: 10 to 40 nM

Q: For `CNC(=O)c1cnc(Nc2cc(N)nc(CF)n2)cc1NC1COC1` [Compound 19, 6-((6-amino-2-(fluoromethyl)pyrimidin-4-yl)amino)-N-methyl-4-(oxetan-3-ylamino)nicotinamide], which IC50 is on record?
A: > 40 nM

Q: `Cn1cc(-c2cnc(Nc3cc(N)nc(C(F)F)n3)cc2OC(F)(F)F)cn1` [Compound 95, 2-(difluoromethyl)-N4-(5-(1-methyl-1H-pyrazol-4-yl)-4-(trifluoromethoxy)pyridin-2-yl)pyrimidine-4,6-diamine] was tested. Which IC50 did it give?
A: < 10 nM

Q: How did the IC50 turn out when `Nc1cc(Nc2cc(OC3CC3)c(-c3cnn([C@H]4CCOC4)c3)cn2)nc(C(F)F)n1` (single isomer, unassigned) [Compound 164, (S)—N4-(4-cyclopropoxy-5-(1-(tetrahydrofuran-3-yl)-1H-pyrazol-4-yl)pyridin-2-yl)-2-(difluoromethyl)pyrimidine-4,6-diamine or (R)—N4-(4-cyclopropoxy-5-(1-(tetrahydrofuran-3-yl)-1H-pyrazol-4-yl)pyridin-2-yl)-2-(difluoromethyl)pyrimidine-4,6-diamine] was run?
A: < 10 nM

Q: How did the IC50 turn out when `CNC(=O)c1cnc(Nc2cc(N)nc(C(F)F)n2)cc1NCC(C)C` [Compound 43, 6-((6-amino-2-(difluoromethyl)pyrimidin-4-yl)amino)-4-(isobutylamino)-N-methylnicotinamide] was run?
A: < 10 nM

Q: `Cn1cc(-c2cnc(Nc3cc(N)nc(C(F)F)n3)cc2OCCCO)cn1` [Compound 83, 3-((2-((6-amino-2-(difluoromethyl)pyrimidin-4-yl)amino)-5-(1-methyl-1H-pyrazol-4-yl)pyridin-4-yl)oxy)propan-1-ol] was tested. Which IC50 did it give?
A: 10 to 40 nM

Q: With `Cn1cc(-c2cnc(Nc3cc(N)nc(C(F)F)n3)cc2OCc2cccc(N)c2)cn1` [Compound 178, N4-(4-((3-aminobenzyl)oxy)-5-(1-methyl-1H-pyrazol-4-yl)pyridin-2-yl)-2-(difluoromethyl)pyrimidine-4,6-diamine] as the compound, how does the IC50 read?
A: < 10 nM

Q: `C[C@H](CF)Nc1cc(Nc2cc(N)nc(C(F)F)n2)ncc1C(=O)NC12CC(CO)(C1)C2` [Compound 189, (R)-6-((6-amino-2-(difluoromethyl)pyrimidin-4-yl)amino)-4-((1-fluoropropan-2-yl)amino)-N-(3-(hydroxymethyl)bicyclo[1.1.1]pentan-1-yl)nicotinamide] was tested. Which IC50 did it give?
A: 10 to 40 nM

Q: How did the IC50 turn out when `CNc1cc(Nc2cc(N)nc(C(F)F)n2)ncc1C(=O)NC(C)C` [Compound 29, 6-((6-amino-2-(difluoromethyl)pyrimidin-4-yl)amino)-N-isopropyl-4-(methylamino)nicotinamide] was run?
A: < 10 nM

Q: For `CCNc1cc(Nc2cc(N)nc(C(F)F)n2)ncc1C(=O)NC1CC1` [Compound 39, 6-((6-amino-2-(difluoromethyl)pyrimidin-4-yl)amino)-N-cyclopropyl-4-(ethylamino)nicotinamide], which IC50 is on record?
A: < 10 nM

Q: `CNc1cc(Nc2cc(N)nc(C(F)F)n2)ncc1C(=O)NCc1ccccn1` [Compound 93, 6-((6-amino-2-(difluoromethyl)pyrimidin-4-yl)amino)-4-(methylamino)-N-(pyridin-2-ylmethyl)nicotinamide] was tested. Which IC50 did it give?
A: 10 to 40 nM

Q: `CCNC(=O)c1cnc(Nc2cc(N)nc(C(F)F)n2)cc1N[C@H](C)CF` [Compound 72, (R)-6-((6-amino-2-(difluoromethyl)pyrimidin-4-yl)amino)-N-ethyl-4-((1-fluoropropan-2-yl)amino)nicotinamide] was tested. Which IC50 did it give?
A: < 10 nM

Q: `Nc1cc(Nc2cc(OC(F)(F)F)c(-c3cnn(C4CC4)c3)cn2)nc(C(F)F)n1` [Compound 154, N4-(5-(1-cyclopropyl-1H-pyrazol-4-yl)-4-(trifluoromethoxy)pyridin-2-yl)-2-(difluoromethyl)pyrimidine-4,6-diamine] was tested. Which IC50 did it give?
A: < 10 nM

Source: patent US20250270190A1, “KIT INHIBITORS” (BLUEPRINT MEDICINES CORPORATION, priority 2022, published 2025)
